Experiments:
[1] = Properties of the McrBC cleavage reaction (pH, ratio of components); format: biochemical
Text: (a) pH optimum: Activity is detectable when the pH of the reaction is lowered to about 5.8.
Higher or lower ratios reduce cleavage activity.

methylated DNA = assay: McrBC cleavage of plasmid and phage DNA modified by methylases; format: biochemical
Text: The recognition sequence of the endonuclease of the present invention may be determined by mapping the locations of McrBC cleavage in various DNAs and comparing the DNA sequences of these regions for homology.
McrBC was also found to cleave M.AluI-methylated doublestranded pUC19 linearized at the AflIII site to generate fragments of 2.25 kb, 1.9 kb, 1.75 kb, 1.275 kb, 1.15 kb, 1.05 kb 0.94 kb, 0.25 kb and 0.27 kb, consistent with cleavage near nucleotides 250, 2300, 1350 and 325. McrBC also cleaves the following: M.HaeIII-methylated (GGmCC) pUC19 linearized at the AflIII site to generate fragments of 2.25 kb, 1.8 kb, 1.25 kb, 1.05 kb, 0.94 kb, 0.5 kb, and 0.45 kb, consistent with cleavage near nucleotide 1600, 2500, 350 and 550; M.HhaI-methylated (GmCGC) pBR322 near nucleotides 434-494 and near nucleotides 594-548; M.HhaI-methylated pUC19 linearized at the AflIII site to generate bands of 2.25 kb, 1.9 kb, 1.15 kb, and 0.94 kb, consistent with cleavage near nucleotides 0 or 60, 2350, 1500 and 620; M.MspI-modified (mCCGG) pUC19 linearized at the AflIII site to generate bands of 1.6 kb, 1.5 kb, 1.0 kb and 0.9 kb, consistent with cleavage near nucleotides 1500 and 1600. In addition, McrBC degrades the following: M.SssI modified (mCG) pBR322 and M.SssI modified pUC19 DNA; agarose-embedded cellular DNA of Escherichia coli carrying ppvuIIM1.9, which is M.PvuII modified ([…]).
pBR322 was modified by M.AluI by standard methods, cleaved with ClaI, and resuspended at 0.1 μg/μl. This substrate was recleaved with one of four restriction endonucleases that cleave once in pBR322 (AflIII, NdeI, ScaI, or SspI). These reactions (0.4 μg DNA in each, cleaved in a volume of 20 μl with the appropriate buffer supplied by New England Biolabs) were phenol extracted, precipitated by addition of ethanol in the presence of salt, and resuspended in dH2 O. Half of each reaction (0.2 μg) was digested with McrBC (1 μl each of McrBL and McrC; McrBL was similar to McrBL fraction iii of EXAMPLE III; McrC was similar to McrC fraction ii of EXAMPLE III). Reactions were loaded onto an agarose gel, with size standards (pBR322 digested with BstNI; NEB #301-1) and the sizes of the various fragments determined from a log-linear plot of cm migration (from a Polaroid photograph) versus known size of size standards. Sizes of fragments larger than the largest size standard were estimated by extrapolation and are indicated by "~". Sizes were lane 1, size standard: 1857, 1060, 929, 383, 121 bp; lane 2, AflIII+McrBC: >4 kb (faint, partial digest product), ~2.5, ~2.2, 1.7, 0.7 kb; lane 3, AflIII: ~2.6, ~2.1 (expected sizes 2.449, 1.912); lane 4, NdeI+McrBC: ~ 2.2, ~2.1, 1.8, 0.4 kb; lane 5, NdeI: ~2.5, ~2.2 kb (expected sizes 2.272, 2.089); lane 6, McrBC: ~2.2, 1.7, 0.93, 0.66, 0.48 kb; lane 7, ScaI: ~3.7, 0.54 (expected sizes 3.822, 0.541); lane 8, ScaI+McrBC: ~2.1, ~1.9, 1.1, 0.66, 0.60, 0.54 kb; lane 9, SspI: ~3.7, 0.28 kb (expected sizes 4.146, 0.215); lane 10, SspI+McrBC: ~2.2, 1.35, 0.66, 0.56 kb.
DNA used was pUC19 linearized at the AflIII site, obtained by standard procedures, and then methylated (0.8 μg) in a reaction containing 8 μl 10 X buffer (for M.AluI, M.HhaI, and M.HpaII this was 10XM.FnuDII buffer: 500 mM Tris[Cl] pH 7.5, 100 mM EDTA, 50 mM β-mercaptoethanol;for M.HaeIII, 500 mM Tris [Cl] pH 8.5; 500 mM NaCl, 10 mM dithiothreitol; for M.MspI, 500 mM Tris, pH 7.5, 500 mM NaCl, 50 mM β-mercaptoethanol; for M.SssI, 500 mM Tris Cl, pH 8.0, 500 mM NaCl, 100 mM EDTA), 8 μl S-adenosylmethionine (32 mM in 5 mM H2 SO4, 10% ethanol) and 4 μl methylase (M.AluI, 5 units/μl; M.HaeIII, 5 units/μl; M.HhaI, 25 units/μl; M.HpaII, 1-5 units/μl,M.MspI, 5 units/μl, M.SssI, 2 units/μl) in a total volume of 82 μl. Methylation reactions were incubated 90 minutes at 37° C., then heat-killed by incubation for 15 minutes at 67°-70° C. These substrates were then distributed to 6 series of 7 tubes for McrBC titration. […]

[2] = system: DNA Escherichia coli W3110(ppvuIIM1.9); assay: McrBC digestion of agarose-embedded M.PvuII-modified cellular DNA; format: biochemical
Description: (§1) Accordingly, the DNA Escherichia coli W3110(ppvuIIM1.9), which is modified in the sequence CAGCTG at the N^4 position of the central cytosine to generate the sequence CAGm4CTG, was treated with. McrBC in the presence of GTP following embedding of the cultured cells in agarose and subsequent lysis in situ to release the DNA, by standard procedures for in situ digestion. DNA carrying this modification was cleaved into many fragments of sizes smaller than 50 kb. From this evidence it was concluded that McrBC recognizes sequences containing N^4 C. In addition, DNA from bacteriophages T4αgt βgt dam^h dam1 and T6αgt, containing 5-hydroxymethylcytosine in place of cytosine and devoid of N^6 -methyladenine, was first treated with EcoRI or SspI and then treated with McrBC in the presence of GTP. Both of these DNAs were cleaved to produce many fragments smaller than 700 bp. From this evidence it was concluded that McrBC recognizes sequences containing hm5C as well m5C and N^4 -methylcytosine.

[3] = system: DNA from bacteriophages T4αgt βgt dam^h dam1 and T6αgt; assay: McrBC cleavage of 5-hydroxymethylcytosine-containing phage DNA; format: biochemical, bacteriophages T4 and T6; conditions: hmC DNA first treated with EcoRI or SspI, then McrBC with GTP
Description: as §1

In the case of “McrBC: DNA endonuclease obtainable from Escherichia coli; components McrBL and McrC, substantially free of McrBS”, the “pH to which the reaction can be lowered with activity detectable” value [1] is reported as “about 5.8”, the “degradation of substrate DNA” value (methylated DNA; Dcm-modified (CmCWGG) pBR322, pUC19 or bacteriophage lambda DNA) is reported as “does not degrade” and the “cleavage of substrate DNA” value (methylated DNA; M.AluI-methylated pUC19 linearized at the AflIII site) is reported as “cleave”. The “cleavage of substrate DNA” value (methylated DNA; M.HaeIII-methylated (GGmCC) pUC19 linearized at the AflIII site) was “cleaves”, the “cleavage of substrate DNA” value (methylated DNA; M.HhaI-methylated (GmCGC) pBR322) was “cleaves” and the “cleavage of substrate DNA” value (methylated DNA; M.HhaI-methylated pUC19 linearized at the AflIII site) was “cleaves”. For the same substance, the “degradation of substrate DNA” value (methylated DNA; M.HpaII-modified (Cm5CGG) pBR322, pUC19 or bacteriophage lambda DNA) was “does not degrade”, the “cleavage of substrate DNA” value (methylated DNA; M.MspI-modified (mCCGG) pUC19 linearized at the AflIII site) was “cleaves” and the “degradation of substrate DNA” value (methylated DNA; M.SssI modified (mCG) pBR322 and pUC19) was “degrades”. The “degradation of substrate DNA” value (methylated DNA; pBR322, pUC19 or bacteriophage lambda modified by both Dcm and M.HpaII) was “does not degrade”, the “cleavage of substrate DNA” value (methylated DNA; pBR322 DNA methylated by M.AluI (AGm5CT)) was “cleave” and the “size of fragments produced by cleavage” value ([2]; CAGm4CTG-modified DNA, in the presence of GTP, in situ digestion) was “smaller than 50 kb”. The “degradation of substrate DNA” value ([2]; agarose-embedded cellular DNA of Escherichia coli carrying ppvuIIM1.9, M.PvuII modified (GAm4CGTC)) was “degrades” and the “size of fragments produced by cleavage” value [3] was “smaller than 700 bp”.

— patent US5405760A, “Process for producing recombinant McrBC endonuclease and cleavage of methylated DNA” (New England Biolabs, Inc., priority 1992, dated 1995)
